14 compounds from ChEMBL document CHEMBL1144931, “Synthesis, characterization, and biological properties of 8-azido- and 8-amino-substituted 2',5'-oligoadenylates” (J Med Chem, 2003) can be followed below.

The target in experiment [1] is T1, 2-5A-dependent ribonuclease (Mus musculus, UniProt Q05921).
T1 sequence (Q05921 whole entry): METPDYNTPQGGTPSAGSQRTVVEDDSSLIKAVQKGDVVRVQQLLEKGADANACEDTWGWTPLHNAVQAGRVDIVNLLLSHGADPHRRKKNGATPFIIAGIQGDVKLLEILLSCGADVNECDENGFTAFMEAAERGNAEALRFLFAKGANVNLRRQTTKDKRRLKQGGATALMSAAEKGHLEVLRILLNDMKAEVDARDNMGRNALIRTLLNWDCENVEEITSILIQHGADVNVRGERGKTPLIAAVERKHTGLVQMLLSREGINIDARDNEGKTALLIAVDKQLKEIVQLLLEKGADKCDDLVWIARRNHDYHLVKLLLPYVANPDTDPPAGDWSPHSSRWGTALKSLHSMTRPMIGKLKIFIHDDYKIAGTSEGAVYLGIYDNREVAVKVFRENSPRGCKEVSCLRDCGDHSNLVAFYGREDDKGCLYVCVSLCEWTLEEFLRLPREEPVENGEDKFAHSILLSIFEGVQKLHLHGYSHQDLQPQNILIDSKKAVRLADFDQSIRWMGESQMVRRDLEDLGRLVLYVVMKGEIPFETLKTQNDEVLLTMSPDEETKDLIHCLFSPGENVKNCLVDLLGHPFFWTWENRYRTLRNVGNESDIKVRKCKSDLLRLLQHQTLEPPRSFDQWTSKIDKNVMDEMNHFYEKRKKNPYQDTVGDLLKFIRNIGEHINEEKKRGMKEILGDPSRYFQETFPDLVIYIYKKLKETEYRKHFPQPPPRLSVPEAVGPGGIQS
Description: Displacement of [125I]-labeled 2-5A from 2-5A dependent Ribonuclease L (RNase L) of mouse liver. (In general: Displacement assays read how much labelled ligand stays bound in the presence of the test substance.)

For experiment [2], the target named is T2, 2-5A-dependent ribonuclease (Mus musculus) (UniProt Q05921).
T2 sequence (whole entry): T1 sequence (Q05921 whole entry)
The experiment can be described thus: Relative displacement of [125I]-labeled 2-5A from Ribonuclease L of mouse liver compared to pApApA.

With `Nc1ncnc2c1nc(N)n2[C@@H]1O[C@H](COP(=O)(O)O[C@@H]2[C@H](O)[C@@H](COP(=O)(O)O[C@@H]3[C@H](O)[C@@H](CO)O[C@H]3n3c(N)nc4c(N)ncnc43)O[C@H]2n2c(N)nc3c(N)ncnc32)[C@@H](O)[C@H]1O`, the half-maximal inhibitory concentration (IC50) in experiment [1] was more than 10000 nM. Also, in experiment [2], the Relative activity was less than 0.0004. Turning to `Nc1ncnc2c1nc(N)n2C1O[C@H](COP(=O)(O)O[C@H]2C(n3c(N)nc4c(N)ncnc43)O[C@H](COP(=O)(O)O[C@H]3C(n4c(N)nc5c(N)ncnc54)O[C@H](COP(=O)(O)O[C@H]4C(n5c(N)nc6c(N)ncnc65)O[C@H](COP(=O)(O)O)[C@H]4O)[C@H]3O)[C@H]2O)[C@@H](O)[C@H]1O` (stereo partly specified), in experiment [1], the IC50 is 500 nM. The compound further displayed a Relative activity in experiment [2] of 0.008. In experiment [1], `[N-]=[N+]=Nc1nc2c(N)ncnc2n1[C@@H]1O[C@H](COP(=O)(O)O[C@@H]2[C@H](O)[C@@H](COP(=O)(O)O[C@@H]3[C@H](O)[C@@H](COP(=O)(O)O[C@@H]4[C@H](O)[C@@H](COP(=O)(O)O)O[C@H]4n4c(N=[N+]=[N-])nc5c(N)ncnc54)O[C@H]3n3c(N=[N+]=[N-])nc4c(N)ncnc43)O[C@H]2n2c(N=[N+]=[N-])nc3c(N)ncnc32)[C@@H](O)[C@H]1O` gave a half-inhibitory concentration (IC50) of 2 nM. In experiment [2], the Relative activity amounted to 2. Compound `Nc1ncnc2c1ncn2[C@@H]1O[C@H](COP(=O)(O)O[C@@H]2[C@H](O)[C@@H](COP(=O)(O)O[C@@H]3[C@H](O)[C@@H](COP(=O)(O)OP(=O)(O)OP(=O)(O)O)O[C@H]3n3cnc4c(N)ncnc43)O[C@H]2n2cnc3c(N)ncnc32)[C@@H](O)[C@H]1O` displayed a Relative activity in experiment [2] of 1.3. Compound `[N-]=[N+]=Nc1nc2c(N)ncnc2n1C1O[C@H](COP(=O)(O)O[C@H]2C(n3c(N=[N+]=[N-])nc4c(N)ncnc43)O[C@H](CO)[C@H]2O)[C@@H](O)[C@H]1O` (stereo partly specified) registered a half-maximal inhibitory concentration (IC50) in experiment [1] of more than 10000 nM. The compound further returned a Relative activity in experiment [2] of less than 0.0004.

Regarding `Nc1ncnc2c1nc(N)n2[C@@H]1O[C@H](COP(=O)(O)O[C@@H]2[C@H](O)[C@@H](COP(=O)(O)O[C@@H]3[C@H](O)[C@@H](COP(=O)(O)O)O[C@H]3n3c(N)nc4c(N)ncnc43)O[C@H]2n2c(N)nc3c(N)ncnc32)[C@@H](O)[C@H]1O`, the IC50 in experiment [1] is more than 10000 nM. The Relative activity in experiment [2] was less than 0.0004. Take `Nc1ncnc2c1nc(N)n2[C@@H]1O[C@H](COP(=O)(O)O[C@@H]2[C@H](O)[C@@H](COP(=O)(O)O[C@@H]3[C@H](O)[C@@H](COP(=O)(O)O[C@@H]4[C@H](O)[C@@H](CO)O[C@H]4n4c(N)nc5c(N)ncnc54)O[C@H]3n3c(N)nc4c(N)ncnc43)O[C@H]2n2c(N)nc3c(N)ncnc32)[C@@H](O)[C@H]1O`: the half-maximal inhibitory concentration (IC50) in experiment [1] came to 1000 nM. Besides, in experiment [2], the Relative activity was 0.004. In experiment [1], `[N-]=[N+]=Nc1nc2c(N)ncnc2n1C1O[C@H](COP(=O)(O)O[C@H]2C(n3c(N=[N+]=[N-])nc4c(N)ncnc43)OC(COP(=O)(O)O[C@H]3C(n4c(N=[N+]=[N-])nc5c(N)ncnc54)O[C@H](CO)[C@H]3O)[C@H]2O)[C@@H](O)[C@H]1O` (stereo partly specified) returned a half-inhibitory concentration (IC50) of 70 nM. The Relative activity in experiment [2] was 0.6.

As for `Nc1ncnc2c1nc(N)n2C1O[C@H](COP(=O)(O)O[C@H]2C(n3c(N)nc4c(N)ncnc43)O[C@H](COP(=O)(O)O)[C@H]2O)[C@@H](O)[C@H]1O` (stereo partly specified), the IC50 in experiment [1] was more than 10000 nM. Besides, the Relative activity in experiment [2] was less than 0.0004. Consider `[N-]=[N+]=Nc1nc2c(N)ncnc2n1C1O[C@H](COP(=O)(O)O[C@H]2C(n3c(N=[N+]=[N-])nc4c(N)ncnc43)O[C@H](COP(=O)(O)O)[C@H]2O)[C@@H](O)[C@H]1O` (stereo partly specified), for which the IC50 in experiment [1] stood at 5000 nM. This compound also showed a Relative activity in experiment [2] of 0.0008. For the compound `Nc1ncnc2c1ncn2[C@@H]1O[C@H](CO[P@](=O)(O)O[C@@H]2[C@H](O)[C@@H](CO[P@](=O)(O)O[C@@H]3[C@H](O)[C@@H](CO[P@](=O)(O)O[P@@](=O)(O)OP(=O)(O)O)O[C@H]3n3cnc4c(N)ncnc43)O[C@H]2n2cnc3c(N)ncnc32)[C@@H](O)[C@H]1O`, the IC50 in experiment [1] came to 3 nM. Take `Nc1ncnc2c1nc(N)n2C1O[C@H](COP(=O)(O)O[C@H]2C(n3c(N)nc4c(N)ncnc43)O[C@H](CO)[C@H]2O)[C@@H](O)[C@H]1O` (stereo partly specified): in experiment [1], the IC50 is more than 10000 nM. This compound also yielded a Relative activity in experiment [2] of less than 0.0004.

In experiment [1], `[N-]=[N+]=Nc1nc2c(N)ncnc2n1[C@@H]1O[C@H](COP(=O)(O)O[C@@H]2[C@H](O)[C@@H](COP(=O)(O)O[C@@H]3[C@H](O)[C@@H](COP(=O)(O)O[C@@H]4[C@H](O)[C@@H](CO)O[C@H]4n4c(N=[N+]=[N-])nc5c(N)ncnc54)O[C@H]3n3c(N=[N+]=[N-])nc4c(N)ncnc43)O[C@H]2n2c(N=[N+]=[N-])nc3c(N)ncnc32)[C@@H](O)[C@H]1O` yielded a half-inhibitory concentration (IC50) of 50 nM. The Relative activity in experiment [2] came out at 0.8. With `[N-]=[N+]=Nc1nc2c(N)ncnc2n1C1OC(COP(=O)(O)O)C(O)C1OP(=O)(O)OCC1OC(n2c(N=[N+]=[N-])nc3c(N)ncnc32)C(OP(=O)(O)OC[C@H]2OC(n3c(N=[N+]=[N-])nc4c(N)ncnc43)[C@H](O)[C@@H]2O)C1O` (stereo partly specified), the IC50 in experiment [1] came out at 2 nM. The Relative activity in experiment [2] stood at 2.

By IC50 is commonly meant the concentration needed to halve the response being measured.
